{"source": "patent US20210137948A1", "about": "“TREATMENT OF INFECTIONS CAUSED BY NEISSERIA GONOCOCCUS USING A HALOGENATED SALICYLANILIDE” (priority 2018, published 2021)", "key": {"[1]": {"details": "cited from earlier work"}, "Enterobacter cloacae": {"system": "Enterobacter cloacae", "assay": "Broth microdilution MIC testing", "assay_type": "cell-based", "details": "Enterobacter cloacae MMX 6089, susceptible", "protocol": "(§1) Broth microdilution assay: Mueller Hinton II broth (MHB II, BBL, BD, catalog no. 212322; lot no. 5257869) was used for testing most aerobes.\n(§2) MIC values were determined using a broth microdilution procedure described by CLSI, see reference (1). Automated liquid handlers (Multidrop 384, Labsystems, Helsinki, Finland; Biomek 2000 and Biomek FX, Beckman Coulter, Fullerton Calif.) were used to conduct serial dilutions and liquid transfers.\n(§3) The wells in Columns 2 through 12 of two standard 96-well microdilution plates (Costar 3795, Corning Inc., Corning, N.Y.) were filled with 150 μL of diluent specific to the compound tested. Three hundred microliters of each comparator and investigational drug solution (40× or 100×) was added to one well in Column 1 of the plates. The Biomek 2000 was used to complete the serial transfers through Column 11. The wells of Column 12 contained no drug and were the organism growth control wells. These panels were the “mother plates.”\n(§4) Because drugs were prepared at either 40× or 100×, the “daughter plates” were loaded with 185-188 μL of the appropriate test media for the tested organism, using the Multidrop 384 or by hand. The daughter plates were prepared on the Biomek FX instrument, which transferred 2-5 μL of drug solution from each well of a mother plate to the corresponding well of each daughter plate in a single step. The wells of the daughter plates ultimately contained 185-188 μL of broth appropriate to the organism, 2-5 μL of drug solution, and 10 μL of bacterial inoculum prepared in broth.\n(§5) Standardized inoculum of each organism was prepared per CLSI methods, see reference (1). The inoculum for each organism was dispensed into sterile reservoirs divided by length (Beckman Coulter), and the Biomek 2000 was used to inoculate the plates. Daughter plates were placed on the Biomek 2000 work surface in reverse orientation so that inoculation took place from low to high drug concentration. The Biomek 2000 delivered 10 μL of standardized inoculum into each well. This yielded a final cell density in the daughter plates of approximately 5×10^5 CFU/mL.\n(§6) Plates were stacked 3 high, covered with a lid on the top plate, placed in plastic bags, and incubated at 35° C. for approximately 18 to 20 hr. Following incubation, the microplates were removed from the incubator and viewed from the bottom using a plate viewer. […] The MIC was read and recorded as the lowest concentration of drug that inhibited visible growth of the organism."}, "Pseudomonas aeruginosa": {"system": "Pseudomonas aeruginosa", "assay": "Broth microdilution MIC testing", "assay_type": "cell-based", "details": "Pseudomonas aeruginosa MMX 103/ATCC 27853, susceptible, QC", "protocol": "as §1, §2, §3, §4, §5, §6"}, "Klebsiella pneumoniae": {"system": "Klebsiella pneumoniae", "assay": "Broth microdilution MIC testing", "assay_type": "cell-based", "details": "Klebsiella pneumoniae MMX 214/ATCC 13883, susceptible", "protocol": "as §1, §2, §3, §4, §5, §6"}, "Escherichia coli": {"system": "Escherichia coli", "assay": "Broth microdilution MIC testing", "assay_type": "cell-based", "details": "for MIC: Escherichia coli, read-out: Minimal Inhibitory Concentration", "protocol": "as §1, §2, §3, §4, §5, §6"}, "Acinetobacter baumannii": {"system": "Acinetobacter baumannii", "assay": "Broth microdilution MIC testing", "assay_type": "cell-based", "details": "Acinetobacter baumannii MMX 1630/ATCC 19606, susceptible", "protocol": "as §1, §2, §3, §4, §5, §6"}, "[2]": {"system": "Stenotrophomonas maltophila", "assay": "Broth microdilution MIC testing", "assay_type": "cell-based", "details": "Stenotrophomonas maltophila MMX 4746, susceptible", "protocol": "as §1, §2, §3, §4, §5, §6"}}, "note": "Like-named read-outs stand apart in the source and are kept apart here."}
{"smiles": "O=C(Nc1ccc([N+](=O)[O-])cc1Cl)c1cc(Cl)ccc1O", "note": "[Niclosamide, 2′,5-dichloro-4′-nitrosalicylanilide]", "values": [{"measurement": "solubility in water", "setting": "[1]", "result": "poorly soluble"}, {"measurement": "Minimal Inhibitory Concentration", "setting": "Enterobacter cloacae", "result": "> 8", "unit": "µg/mL"}, {"measurement": "MIC", "setting": "Enterobacter cloacae; read-out: Minimal Inhibitory Concentration", "result": "> 8", "unit": "µg/mL"}, {"measurement": "MIC", "setting": "Pseudomonas aeruginosa; ATCC27853, read-out: Minimal Inhibitory Concentration", "result": "> 8", "unit": "µg/mL"}, {"measurement": "Minimal Inhibitory Concentration", "setting": "Pseudomonas aeruginosa", "result": "> 8", "unit": "µg/mL"}, {"measurement": "MIC", "setting": "Klebsiella pneumoniae; ATCC13883, read-out: Minimal Inhibitory Concentration", "result": "> 8", "unit": "µg/mL"}, {"measurement": "Minimal Inhibitory Concentration", "setting": "Klebsiella pneumoniae", "result": "> 8", "unit": "µg/mL"}, {"measurement": "Minimal Inhibitory Concentration", "setting": "Escherichia coli; Escherichia coli MMX 102/ATCC 25922, QC strain", "result": "> 8", "unit": "µg/mL"}, {"measurement": "Minimal Inhibitory Concentration", "setting": "Escherichia coli; Escherichia coli MMX 120, acrAB efflux pump knockout", "result": "> 8", "unit": "µg/mL"}, {"measurement": "MIC", "setting": "Escherichia coli; ATCC25922", "result": "> 8", "unit": "µg/mL"}, {"measurement": "MIC", "setting": "Escherichia coli", "result": "> 8", "unit": "µg/mL"}, {"measurement": "MIC", "setting": "Acinetobacter baumannii; ATCC19606, read-out: Minimal Inhibitory Concentration", "result": "> 8", "unit": "µg/mL"}, {"measurement": "Minimal Inhibitory Concentration", "setting": "Acinetobacter baumannii", "result": "> 8", "unit": "µg/mL"}, {"measurement": "Minimal Inhibitory Concentration", "setting": "[2]", "result": "> 8", "unit": "µg/mL"}, {"measurement": "MIC", "setting": "[2]; Stenotrophomonas sp. LMG 10879, read-out: Minimal Inhibitory Concentration", "result": "> 8", "unit": "µg/mL"}]}
